The values below come from ChEMBL document CHEMBL1151310, “Inhibition of cAMP-phosphodiesterase by biflavones of Ginkgo biloba in rat adipose tissue” (J Nat Prod, 1998).

What all share (format): tissue-based
Assay [1] is filed under the species Rattus norvegicus. Description: Inhibition of PDE in Sprague-Dawley rat epididymal adipose tissue assessed as [14C]adenosine recovery at 0.05 to 3 ug/ml by liquid scintillation counting.
Assay [2] is filed under the species Rattus norvegicus. As to the kind of experiment: Inhibition of PDE in Sprague-Dawley rat epididymal adipose tissue assessed as [14C]adenosine recovery at 100 uM by liquid scintillation counting.
Assay [3] is filed under the species Rattus norvegicus. Description: Inhibition of PDE in Sprague-Dawley rat epididymal adipose tissue assessed as [14C]adenosine recovery at 1 mM by liquid scintillation counting.
The species entered for assay [4] is Rattus norvegicus. As to the kind of experiment: Inhibition of PDE in Sprague-Dawley rat epididymal adipose tissue assessed as [14C]adenosine recovery at 200 uM by liquid scintillation counting.
Assay [5] is filed under the species Rattus norvegicus. Description: (§1) Inhibition of PDE in Sprague-Dawley rat epididymal adipose tissue assessed as [14C]adenosine recovery by liquid scintillation counting. Conditions: dose or concentration not given here.
The nature of assay [6]: as §1.
The species named for assay [7] is Rattus norvegicus. As to the kind of experiment: Inhibition of PDE in Sprague-Dawley rat epididymal adipose tissue assessed as [14C]adenosine recovery at 3.6 uM by liquid scintillation counting.

Each structure is given as a SMILES string.

Regarding `COc1ccc(-c2cc(=O)c3c(O)cc(O)c(-c4cc(-c5cc(=O)c6c(O)cc(OC)cc6o5)ccc4OC)c3o2)cc1`, the inhibition in the assay filed under Rattus norvegicus [1] came out at 10%.
As to `COc1ccc(Cc2nccc3cc(OC)c(OC)cc23)cc1OC`, the inhibition in the assay filed under Rattus norvegicus [2] was over 90%.
Regarding `Cn1c(=O)c2[nH]cnc2n(C)c1=O`, the inhibition in the assay filed under Rattus norvegicus [3] was over 90%.
As to `O=c1c(O)c(-c2ccc(O)cc2)oc2cc(O)cc(O)c12`, the inhibition in the assay listed under Rattus norvegicus [4] was over 90%.
Consider `O=c1cc(-c2ccc(O)c(-c3c(O)cc(O)c4c(=O)cc(-c5ccc(O)cc5)oc34)c2)oc2cc(O)cc(O)c12` [AMENTOFLAVONE], for which, in the assay filed under Rattus norvegicus [5], the inhibition amounted to 85%. Also, in assay [6], the half-maximal inhibitory concentration (IC50) was determined as 270 nM.
Regarding `COc1ccc(-c2cc(=O)c3c(O)cc(O)cc3o2)cc1-c1c(O)cc(O)c2c(=O)cc(-c3ccc(O)cc3)oc12` [BILOBETIN], in the assay listed under Rattus norvegicus [5], the inhibition was found to be 84%. Moreover, the half-inhibitory concentration (IC50) in assay [6] came out at 360 nM.
In the case of `COc1cc(O)c2c(=O)cc(-c3ccc(O)c(-c4c(O)cc(O)c5c(=O)cc(-c6ccc(O)cc6)oc45)c3)oc2c1` [SEQUOIAFLAVONE], the inhibition in the assay filed under Rattus norvegicus [7] turned out to be 94%. Besides, the IC50 in assay [6] was found to be 1010 nM.

As a reminder, the inhibition is the change of the read-out against control, counted positive when it falls. One may read the IC50 as the concentration that gives 50% inhibition.
